Experimental findings from patent EP4635944A1, “2-AZABICYCLO[3.1.1]HEPTANE COMPOUND” (Daiichi Sankyo Company, Limited, priority 2022, dated 2024) are described below.

The term EC50 denotes the concentration giving half of the maximal effect.

For the experiment, the target named is T1, human OX2R (Homo sapiens, UniProt O43614).
T1 construct: host or cells: CHO-K1 (Chinese Hamster Ovary K1)
T1 sequence (O43614 1-444): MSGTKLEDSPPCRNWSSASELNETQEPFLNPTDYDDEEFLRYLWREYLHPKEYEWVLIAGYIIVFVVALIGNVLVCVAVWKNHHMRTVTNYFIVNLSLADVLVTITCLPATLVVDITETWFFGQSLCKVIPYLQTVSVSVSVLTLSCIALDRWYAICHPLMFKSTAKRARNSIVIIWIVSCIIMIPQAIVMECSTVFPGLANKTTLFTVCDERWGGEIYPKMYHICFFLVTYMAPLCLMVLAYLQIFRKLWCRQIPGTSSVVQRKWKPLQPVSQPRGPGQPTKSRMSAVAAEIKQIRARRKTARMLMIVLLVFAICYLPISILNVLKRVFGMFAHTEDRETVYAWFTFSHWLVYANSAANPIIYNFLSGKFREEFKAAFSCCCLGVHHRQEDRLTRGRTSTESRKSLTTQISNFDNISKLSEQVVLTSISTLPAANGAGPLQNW
Nature of the experiment: Evaluation of OX2R agonist activity (intracellular calcium, CHO-K1 cells with forced expression of human OX2R). It counts as cell-based. Particulars: CHO-K1 cells expressing human OX2R; 100% = 5 µM of the reference compound; read-out: hOX2R EC50. Here is the method:
Evaluation of OX2R agonist activity
Chinese Hamster Ovary K1 (CHO-K1) cells (GenScript) with forced expression of human OX2R were seeded onto a 384 well microplate (Corning) at 7500 cells/well and cultured for 24 hours. 20 µL of the loading buffer (25 mM HEPES containing 1.25 mM of Probenecid and 2.5 µg/mL of Fluo 4-AM at final concentration, Hank's balanced salt solution, 0.06% Pluronic F-127, Quenching buffer) in the Calcium Kit II (DOJINDO LABORATORIES) was added, and the microplate was allowed to stand for 30 minutes. A reference compound (Example435 of WO 2019/027058, N-[(2S,3S)-2-[[3-(3,5-difluorophenyl)-2-fluoro-phenyl]methyl]-1-(2-hydroxy-2-methylpropanoyl)pyrrolidin-3-yl]ethanesulfonamide) or the test compound was added in 10 µL, and changes in intracellular calcium ion concentration were measured using FDSS7000EX (Hamamatsu Photonics K.K.) as a fluorescence intensity ratio obtained upon dual wavelength excitation at 480 nm and 540 nm. Note that the reference compound or test compound was dissolved in DMSO (final concentration of DMSO was 0.5%) and diluted with an assay buffer (20 mM HEPES, Hank's balanced salt solution, 0.1% BSA). The difference between the maximum and minimum fluorescence values between 5 and 7 seconds after the addition of the test compound or reference compound was used as the indicator. The value of wells to which the assay buffer containing no test compound was added was defined as 0%, and the value of wells to which 5 µM of the reference compound was added was defined as 100%. The 50% effective concentration (EC50 value) was determined from the values obtained when various concentrations of the test compound were added. […]
As for `CS(=O)(=O)N[C@@H]1[C@H](Cc2cc(F)cc(-c3cccc(Cl)c3)c2F)N(C(=O)[C@H](O)C(F)(F)F)C2CC1(F)C2` (single isomer, unassigned) [Example 82], the EC50 was determined as 79 nM.

As for `CCNC(=O)N1C2CC(C2)[C@H](NS(C)(=O)=O)[C@@H]1Cc1cccc(-c2ccccc2)c1F` [Example 37, (3S,4S)-N-Ethyl-3-[(2-fluoro[biphenyl]-3-yl)methyl]-4-[(methylsulfonyl)amino]-2-azabicyclo[3.1.1]heptane-2-carboxamide], the EC50 was determined as 18 nM.

Consider `CS(=O)(=O)N[C@H]1C2CC(C2)N(C(=O)[C@H](O)CF)[C@H]1Cc1cccc(-c2ccccc2)c1F` [Example 75, N-{(3S,4S)-3-[(2-Fluoro[biphenyl]-3-yl)methyl]-2-[(2S)-3-fluoro-2-hydroxypropanoyl]-2-azabicyclo[3.1.1]heptan-4-yl}methanesulfonamide], for which the 50% effective concentration (EC50) came to 78 nM. The value for `CS(=O)(=O)N[C@H]1C2CC(C2)N(C(=O)C2CC2)[C@H]1Cc1cccc(-c2cc(F)cc(F)c2)c1F` [Example 20, N-{(3S,4S)-2-(Cyclopropylcarbonyl)-3-[(2,3',5'-trifluoro[biphenyl]-3-yl)methyl]-2-azabicyclo[3.1.1]heptan-4-yl}methanesulfonamide] was 32 nM; that for `CC(C)(O)C(=O)N1C2CC(C2)[C@H](NS(C)(=O)=O)[C@@H]1Cc1cccc(-c2cc(F)cc(C(F)F)c2)c1F` [Example 51, N-[(3S,4S)-3-{[3'-(Difluoromethyl)-2,5'-difluoro[biphenyl]-3-yl]methyl}-2-(2-hydroxy-2-methylpropanoyl)-2-azabicyclo[3.1.1]heptan-4-yl]methanesulfonamide] was 33 nM. Regarding `CC(C)C(=O)N1C2CC(C2)[C@H](NS(C)(=O)=O)[C@@H]1Cc1cccc(-c2ccccc2)c1F` [Example 57, N-[(3S,4S)-3-[(2-Fluoro[biphenyl]-3-yl)methyl]-2-(2-methylpropanoyl)-2-azabicyclo[3.1.1]heptan-4-yl]methanesulfonamide], the EC50 is 38 nM.

Turning to `CS(=O)(=O)N[C@@H]1[C@H](Cc2cccc(-c3ccccc3)c2F)N(C(=O)[C@H](O)C(F)(F)F)C2CC1(F)C2` [Example 69, N-{(3S,4R)-5-Fluoro-3-[(2-fluoro[biphenyl]-3-yl)methyl]-2-[(2S)-3,3,3-trifluoro-2-hydroxypropanoyl]-2-azabicyclo[3.1.1]heptan-4-yl}methanesulfonamide], the EC50 came out at 35 nM. The value for `CS(=O)(=O)N[C@H]1C2CC(C2)N(C(=O)[C@@H]2C[C@H]2F)[C@H]1Cc1cccc(-c2cc(F)cc(F)c2)c1F` [Example 30, N-{(3S,4S)-2-{[(1S,2R)-2-Fluorocyclopropyl]carbonyl}-3-[(2,3',5'-trifluoro[biphenyl]-3-yl)methyl]-2-azabicyclo[3.1.1]heptan-4-yl}methanesulfonamide] was 148 nM. Consider `CS(=O)(=O)N[C@H]1C2CC(C2)N(C(=O)C(O)C(F)F)[C@H]1Cc1cccc(-c2ccccc2)c1F` (single isomer, unassigned) [Example 72], for which the EC50 turned out to be 112 nM. The value for `CC(C)(O)C(=O)N1C2CC(C2)[C@H](NS(C)(=O)=O)[C@@H]1Cc1cccc(-c2cc(F)cc(Cl)c2)c1F` [Example 52, N-[(3S,4S)-3-[(3'-Chloro-2,5'-difluoro[biphenyl]-3-yl)methyl]-2-(2-hydroxy-2-methylpropanoyl)-2-azabicyclo[3.1.1]heptan-4-yl]methanesulfonamide] was 34 nM; that for `C[C@@H](O)C(=O)N1C2CC(C2)[C@H](NS(C)(=O)=O)[C@@H]1Cc1cccc(-c2cccc(F)c2)c1F` [Example 40, N-{(3S,4S)-3-[(2,3'-Difluoro[biphenyl]-3-yl)methyl]-2-[(2R)-2-hydroxypropanoyl]-2-azabicyclo[3.1.1]heptan-4-yl}methanesulfonamide] was 49 nM; that for `CC(C)(O)C(=O)N1C2CC(F)(C2)C(NS(C)(=O)=O)C1Cc1cccc(-c2cc(F)cc(F)c2)c1F` (single isomer, unassigned) [Example 12, N-{5-Fluoro-2-(2-hydroxy-2-methylpropanoyl)-3-[(2,3',5'-trifluoro[biphenyl]-3-yl)methyl]-2-azabicyclo[3.1.1]heptan-4-yl}methanesulfonamide] was 27 nM.

On to `C[C@@H](O)C(=O)N1C2CC(C2)[C@H](NS(C)(=O)=O)[C@@H]1Cc1cccc(-c2cccc3c2OC(F)(F)O3)c1F` [Example 38, N-{(3S,4S)-3-[3-(2,2-Difluoro-1,3-benzodioxol-4-yl)-2-fluorobenzyl]-2-[(2R)-2-hydroxypropanoyl]-2-azabicyclo[3.1.1]heptan-4-yl}methanesulfonamide], for which the EC50 was 68 nM. The value for `C[C@@H](O)C(=O)N1C2CC(C2)[C@H](NS(C)(=O)=O)[C@@H]1Cc1cccc(-c2cccc(C(F)F)c2)c1F` [Example 24, N-{(3S,4S)-3-{[3'-(Difluoromethyl)-2-fluoro[biphenyl]-3-yl]methyl}-2-[(2R)-2-hydroxypropanoyl]-2-azabicyclo[3.1.1]heptan-4-yl}methanesulfonamide] was 15 nM; that for `CS(=O)(=O)N[C@@H]1[C@H](Cc2cccc(-c3ccccc3)c2F)N(C(=O)[C@@H]2CC2(F)F)C2CC1(F)C2` [Example 78, N-{(3S,4R)-2-{[(1S)-2,2-Difluorocyclopropyl]carbonyl}-5-fluoro-3-[(2-fluoro[biphenyl]-3-yl)methyl]-2-azabicyclo[3.1.1]heptan-4-yl}methanesulfonamide] was 69 nM; that for `CC(C)S(=O)(=O)N[C@H]1C2CC(C2)N(C(=O)C(C)(C)O)[C@H]1Cc1cccc(-c2cc(F)cc(F)c2)c1F` (single isomer, unassigned) [Example 4] was 225 nM. The value for `CC(C)(O)C(=O)N1C2CC(C2)[C@H](NS(C)(=O)=O)[C@@H]1Cc1cccc(-c2cccc(Cl)n2)c1F` [Example 21, N-[(3S,4S)-3-[3-(6-Chloropyridin-2-yl)-2-fluorobenzyl]-2-(2-hydroxy-2-methylpropanoyl)-2-azabicyclo[3.1.1]heptan-4-yl]methanesulfonamide] was 217 nM. The value for `C[C@@H](O)C(=O)N1C2CC(C2)[C@H](NS(=O)(=O)C2CC2)[C@@H]1Cc1cccc(-c2ccccc2)c1F` [Example 44, N-{(3S,4S)-3-[(2-Fluoro[biphenyl]-3-yl)methyl]-2-[(2R)-2-hydroxypropanoyl]-2-azabicyclo[3.1.1]heptan-4-yl}cyclopropanesulfonamide] was 22 nM; that for `CC(C)(O)C(=O)N1C2CC(F)(C2)C(NS(C)(=O)=O)C1Cc1cccc(-c2cccc(Cl)c2)c1F` (single isomer, unassigned) [Example 61, N-[(3S,4R)-3-[(3'-Chloro-2-fluoro[biphenyl]-3-yl)methyl]-5-fluoro-2-(2-hydroxy-2-methylpropanoyl)-2-azabicyclo[3.1.1]heptan-4-yl]methanesulfonamide or N-[(3R,4S)-3-[(3'-chloro-2-fluoro[biphenyl]-3-yl)methyl]-5-fluoro-2-(2-hydroxy-2-methylpropanoyl)-2-azabicyclo[3.1.1]heptan-4-yl]methanesulfonamide] was 40 nM; that for `CN(C)S(=O)(=O)N[C@H]1C2CC(C2)N(C(=O)C(C)(C)O)[C@H]1Cc1cccc(-c2cc(F)cc(F)c2)c1F` (single isomer, unassigned) [Example 2] was 89 nM.
